Results reported in patent publication US6596758B1, “Benzopyrans and benzoxepines, pharmaceutical compositions comprising them and preparation process” (Merck Patent GmbH, priority 1998, dated 2003).

Experiments:
[1] = target: T1, PPARα (Homo sapiens, UniProt Q07869); assay: PPARα activation, luciferase reporter (J3TkLuc) in SK-Hep1 cells cotransfected with PPARα expression vector; assay type: cell-based; conditions: 36 hours incubation, relative to the control value
T1 construct: expressed in transfected cells
T1 sequence (Q07869 1-468): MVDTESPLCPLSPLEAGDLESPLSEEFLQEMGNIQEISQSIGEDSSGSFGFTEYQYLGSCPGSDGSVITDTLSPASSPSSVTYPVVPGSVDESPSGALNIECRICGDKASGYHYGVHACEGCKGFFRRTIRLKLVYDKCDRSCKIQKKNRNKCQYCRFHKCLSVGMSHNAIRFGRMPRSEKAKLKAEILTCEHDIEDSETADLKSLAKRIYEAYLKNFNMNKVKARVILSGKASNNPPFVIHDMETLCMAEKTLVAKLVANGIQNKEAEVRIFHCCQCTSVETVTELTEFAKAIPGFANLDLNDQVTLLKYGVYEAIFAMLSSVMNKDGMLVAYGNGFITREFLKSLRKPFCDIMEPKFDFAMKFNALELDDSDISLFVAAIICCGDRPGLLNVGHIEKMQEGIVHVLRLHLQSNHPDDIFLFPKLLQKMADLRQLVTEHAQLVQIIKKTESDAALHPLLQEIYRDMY
Text: (§1) The hypolipidaemic and hypoglycaemic effect of the compounds of the invention results from their ability to activate the PPARα and PPARγ isoforms.
(§2) Analysis of the activation of PPARα and PPARγ is based on the transfection of a DNA allowing the expression of a reporter gene (the gene of luciferase) under the control of the PPARs, either endogenous in the case of PPARγ of exogenous in the case of PPARα. The reporter plasmid J3TkLuc comprises three copies of the response element for PPARs of the human apo A-II gene (Staels, B et al. (1995), J. Clin. Invest., 95, 705-712) which are cloned upstream of the promoter of the thymidine kinase gene of the herpes simplex virus in the plasmid pGL3. This reporter gene was obtained by subcloning, in the plasmid pGL3, the plasmid J3TkCAT described above (Fajas, L et al. (1997), J. Biol. Chem., 272, 18779-18789). […] These cells were inoculated at the rate of 20,000 cells per well (96-well plates) and transfected with 150 ng of reporter DNA complexed with a mixture of lipids. In the case of the SK-Hep1 cells, an expression vector for PPARα, described by Sher, T. et al. (1993), Biochemistry, 32, 5598-5604, is cotransfected. […] At the end of incubation, the cells are lysed and the luciferase activity is measured. […]

[2] = system: pGL3 reporter vector devoid of a PPAR response element; assay: pGL3 reporter vector devoid of a PPAR response element, SK-Hep1 cells; assay type: cell-based, human
Text: (§3) Analysis of the activation of PPARα and PPARγ is based on the transfection of a DNA allowing the expression of a reporter gene (the gene of luciferase) under the control of the PPARs, either endogenous in the case of PPARγ of exogenous in the case of PPARα. The reporter plasmid J3TkLuc comprises three copies of the response element for PPARs of the human apo A-II gene (Staels, B et al. (1995), J. Clin. Invest., 95, 705-712) which are cloned upstream of the promoter of the thymidine kinase gene of the herpes simplex virus in the plasmid pGL3. This reporter gene was obtained by subcloning, in the plasmid pGL3, the plasmid J3TkCAT described above (Fajas, L et al. (1997), J. Biol. Chem., 272, 18779-18789). […] These cells were inoculated at the rate of 20,000 cells per well (96-well plates) and transfected with 150 ng of reporter DNA complexed with a mixture of lipids. In the case of the SK-Hep1 cells, an expression vector for PPARα, described by Sher, T. et al. (1993), Biochemistry, 32, 5598-5604, is cotransfected. After 5, hours, the cells are washed twice and incubated for 36 hours in the presence of the test compound in a fresh culture medium comprising 10% foetal calf serum. At the end of incubation, the cells are lysed and the luciferase activity is measured. This activity is expressed relative to the control value. […]

[3] = system: PPARγ; assay: PPARγ activation, luciferase reporter (J3TkLuc) in CV1 cells; assay type: cell-based, green monkey; conditions: 36 hours incubation, relative to the control value
Text: as §1, §2

[4] = system: pGL3 reporter vector devoid of a PPAR response element; assay: pGL3 reporter vector devoid of a PPAR response element, CV1 cells; assay type: cell-based, green monkey
Text: as §3

[5] = system: db/db mice; assay: Antidiabetic and hypolipidaemic activity by the oral route in db/db mice; assay type: in vivo; conditions: 100 mg/kg/day per os
Method: The antidiabetic and hypolipidaemic activity of the compounds of formula I [sic] was determined by the oral route in db/db mice.
Two-month-old db/db mice are treated per os for 15 days with the compound of Example 16 (100 mg/kg/day). Each study group comprises seven animals. After treating for three days (D3) and fifteen days (D15), retro-orbital samples are taken after light anaesthesia and fasting for 4 hours.
The following measurements were taken:
quantitative determination of glycaemia (glucose oxidase) at D3 and D15 and of the lipid parameters with regard to the sera at D15 (COBAS): triglycerides, total cholesterol (CHOL), HDL cholesterol (HDL-C) and free fatty acids (FFA) (BioMérieux and Wako Chemicals quantitative determination kit).
The measurements which appear in this table are mean values±standard error.

[6] = day 15, serum, mean ± standard error

| SMILES | melting point | further results |
| --- | --- | --- |
| CCCCCCCCCNC1Oc2ccccc2C=C1/C=C/C(C)=C/C(=O)O (stereo not drawn) | 104 to 106 °C |  |
| CC(/C=C/C1=Cc2ccccc2OC1)=C\C(=O)O [Example 3b] | 226 to 228 °C |  |
| CC(=C/C(=O)O)/C=C/C1=Cc2ccccc2OC1(C)C [Example 5b] | 176 °C |  |
| CC(/C=C/C1=C(c2ccccc2)c2ccccc2OC1)=C\C(=O)O [Example 7b] | 258 to 260 °C |  |
| CC1=C(/C=C/C(C)=C/C(=O)O)COc2ccccc21 [Example 11b] | 216 to 218 °C |  |
| CC(/C=C/C1=Cc2ccccc2OC1c1ccccc1)=C\C(=O)O (stereo not drawn) [Example 14b] | 200 to 202 °C |  |
| COc1ccc2c(c1)C(/C=C/C(C)=C/C(=O)O)=CC(C)(C)CO2 [Example 16b, (2E, 4E)-5-(3,3-Dimethyl-7-methoxy-2,3-dihydrobenzoxepin-5-yl)-3-methylpenta-2,4-dienoic acid] |  | increase of the luciferase signal [1]: 250%; luciferase activity with pGL3 reporter vector devoid of a PPAR response element [2]: inactive; increase of the luciferase signal [3]: 300%; luciferase activity with pGL3 reporter vector devoid of a PPAR response element [4]: inactive; Glycaemia D3, % variation with respect to the control ([5]; day 3): −28%; Glycaemia D3 ([5]; day 3, fasting 4 hours, mean ± standard error): 15.4 ± 3.8 mM; Glycaemia D15, % variation with respect to the control ([5]; day 15): −40%; Glycaemia D15 ([5]; day 15, fasting 4 hours, mean ± standard error): 16.7 ± 4.4 mM; CHOL D15, % variation with respect to the control ([5]; day 15, serum): +19%; FFA, % variation with respect to the control ([5]; day 15, serum): −20%; HDL-C D15, % variation with respect to the control ([5]; day 15, serum): +18%; Triglycerides D15, % variation with respect to the control ([5]; day 15, serum): −68%; CHOL D15 (total cholesterol) [5, 6]: 4.44 ± 0.39 mM; FFA (free fatty acids) [5, 6]: 0.82 ± 0.23 (ns) mM; HDL-C D15 (HDL cholesterol) [5, 6]: 3.50 ± 0.37 mM; Triglycerides D15 [5, 6]: 0.69 ± 0.09 mM |
| COc1ccc2c(c1)C(/C=C/C(C)=C/C(=O)O)=CC1(CCCCC1)CO2 [Example 34B, (2E, 4E)-5-(Spiro[(7-methoxy-2,3-dihydrobenzo[b]-oxepine)-3,1′-cyclohexane]-5-yl)-3-methyl-penta-2,4-dienoic acid] | 173 to 174 °C |  |
| CC(/C=C/C1=CC(C)(C)COc2cc(C)c(C)cc21)=C\C(=O)O [Example 37B, 3-Methyl-5-(3,3,7,8-tetramethyl-2,3-dihydrobenzo[b]-oxepin-5-yl)penta-2,4-dienoic acid] | 171 to 173 °C |  |
| CCOC(=O)/C=C(C)/C=C/C1=CC(C)(C)COc2cc(-c3ccc(F)cc3)ccc21 [Example 38A, (2E, 4E)-5-[8-(4-Fluorophenyl)-3,3-dimethyl-2,3-dihydrobenzo[b]-oxepin-5-yl]-3-methylpenta-2,4-dienoic acid ethyl ester] | 113 to 115 °C |  |
| COc1ccc2c(c1)OCC(C)(C)C=C2/C=C/C(C)=C/C(=O)O [Example 39B, (2E, 4E)-5-(8-Methoxy-3,3-dimethyl-2,3-dihydrobenzo[b]-oxepin-5-yl)-3-methylpenta-2,4-dienoic acid] | 178 to 180 °C |  |
| CC(/C=C/C1=CC(C)(C)COc2ccc(C(C)C)cc21)=C\C(=O)O [Example 40B, (2E, 4E)-5-(7-Isopropyl-3,3-dimethyl-2,3-dihydrobenzo[b]-oxepin-5-yl)-3-methylpenta-2,4-dienoic acid] | 145 °C |  |
| CCC(/C=C/C1=CC(C)(C)COc2ccc(OC)cc21)=C\C(=O)O [Example 43B, (2E, 4E)-3-Ethyl-5-(7-methoxy-3,3-dimethyl-2,3-dihydrobenzo[b]-oxepin-5-yl)penta-2,4-dienoic acid] | 166 to 168 °C |  |
| CC(/C=C/C1=CC(C)(C)COc2ccc(-c3ccc(C(F)(F)F)cc3)cc21)=C\C(=O)O [Example 45B, (2E, 4E)-5-[3,3-Dimethyl-7-(4-(trifluoromethyl)phenyl)-2,3-dihydrobenzo[b]-oxepin-5-yl]-3-methylpenta-2,4-dienoic acid] | 194 to 196 °C |  |
| COc1cccc2c1C(/C=C/C(C)=C/C(=O)O)=CC(C)(C)O2 [Example 46B, (2E, 4E)-5-(5-Methoxy-2,2-dimethyl-2H-chromen-4-yl)-3-methylpenta-2,4-dienoic acid] | 160 to 162 °C |  |
| CCCCCC(/C=C/C1=CC(C)(C)COc2ccc(OC)cc21)=C\C(=O)O [Example 52B, (2E, 4E)-5-(7-Methoxy-3,3-dimethyl-2,3-dihydrobenzo[b]-oxepin-5-yl)-3-pentylpenta-2,4-dienoic acid] | 147 to 149 °C |  |

Further lines, with some results ahead:

| melting point | SMILES | further results |
| --- | --- | --- |
| 110 to 112 °C | CCOC(=O)/C=C(C)/C=C/C1=Cc2ccccc2OC1 [Example 3a] |  |
| 164 to 166 °C | CC(/C=C/C1=Cc2ccccc2OC1(C)C)=C\C(=O)O [Example 4b] |  |
| 224 to 226 °C | CC(=C/C(=O)O)/C=C/C1=Cc2ccccc2OC1 [Example 12b] |  |
| 207 to 209 °C | CC(/C=C/C1=CC(C)(C)COc2cc(-c3ccc(F)cc3)ccc21)=C\C(=O)O [Example 38B, (2E, 4E)-5-[8-(4-Fluorophenyl)-3,3-dimethyl-2,3-dihydrobenzo[b]-oxepin-5-yl]-3-methylpenta-2,4-dienoic acid] |  |
| 154 to 156 °C | CCCCCC1C=C(/C=C/C(C)=C/C(=O)O)c2cc(OC)ccc2OC1 (stereo not drawn) [Example 41, (2E, 4E)-5-(7-Methoxy-3-pentyl-2,3-dihydrobenzo[b]-oxepin-5-yl)-3-methylpenta-2,4-dienoic acid] |  |
| 206 °C | CC(/C=C/C1=CC(C)(C)COc2ccc(O)cc21)=C\C(=O)O [Example 44B] |  |
| 159 to 161 °C | COc1ccc2c(c1)C(/C=C/C(C)=C/C(=O)O)=CC(C)(C)CS2 [Example 47B, (2E, 4E)-5-(7-Methoxy-3,3-dimethyl-2,3-dihydrobenzo[b]-thiepin-5-yl)-3-methylpenta-2,4-dienoic acid] |  |
| 162 to 163 °C | COc1ccc2c(c1)OC(C)(C)C=C2/C=C/C(C)=C/C(=O)O [Example 48B, (2E, 4E)-5-(7-Methoxy-2,2-dimethyl-2H-chromen-4-yl)-3-methylpenta-2,4-dienoic acid] |  |
| 174 to 176 °C | CCCC(/C=C/C1=CC(C)(C)COc2ccc(OC)cc21)=C\C(=O)O [Example 49B, (2E, 4E)-5-(7-Methoxy-3,3-dimethyl-2,3-dihydrobenzo[b]-oxepin-5-yl)-3-propylpenta-2,4-dienoic acid] |  |
| 195 to 196 °C | CC(/C=C/C1=CC(C)(C)COc2ccc(C3CCCCC3)cc21)=C\C(=O)O [Example 50B, (2E, 4E)-5-(7-Cyclohexyl-3,3-dimethyl-2,3-dihydrobenzo[b]-oxepin-5-yl)-3-methylpenta-2,4-dienoic acid] |  |
| 129 to 130 °C | COc1ccc2c(c1)C(/C=C/C(C)=C/C(=O)O)=C(C)C(C)(C)CO2 [Example 54B, (2E, 4E)-5-(7-Methoxy-3,3,4-trimethyl-2,3-dihydrobenzo[b]-oxepin-5-yl)-3-methylpenta-2,4-dienoic acid] |  |
